Consider two compounds from paper PMC6271477, “Effects of Single Amino Acid Substitution on the Biophysical Properties and Biological Activities of an Amphipathic α-Helical Antibacterial Peptide Against Gram-Negative Bacteria” (Molecules, 2014).

The test system of one data set is P. aeruginosa ATCC27853. Type of data set: cell-based. On the procedure:
(§1) Minimal inhibitory concentrations (MIC) were determined using a broth dilution method. Briefly, bacteria were grown overnight at 37 °C in Mueller–Hinton (MH) Broth, diluted in the same medium and transferred into 96-well microtiter plates (90 μL/well). Peptides were serially diluted using 0.2% bovine serum albumin containing 0.01% acetic acid and added to the microtiter plates in a volume of 10 μL per well to give a final concentration of 5 × 10^5 CFU/mL. MICs were defined as the lowest peptide concentration that inhibited bacterial growth after incubation for 24 h at 37 °C.

For a further data set, the system named is E. coli Clinical Isolate. In kind it is cell-based. The protocol:
as §1

A further data set relates to E. coli ATCC25922. In kind it is cell-based. The protocol:
as §1

The next data set deals with P. aeruginosa H188. In kind it is cell-based. The protocol:
as §1

Data set [1] can be described thus: CD spectroscopy, helicity in benign buffer and in 50% TFE. In kind it is physicochemical. As to conditions: for [θ]222, mean residue molar ellipticity, benign / [θ]222, mean residue molar ellipticity, 50% TFE: CD at 222 nm, peptide 75 μM; for [θ]222, mean residue molar ellipticity, benign / [θ]222, mean residue molar ellipticity, 50% TFE / % helix, 50% TFE: 25 °C; for [θ]222, mean residue molar ellipticity, benign: KP buffer (100 mM KCl, 50 mM K2HPO4/KH2PO4, pH 7.0); for [θ]222, mean residue molar ellipticity, 50% TFE / % helix, 50% TFE: KP buffer diluted 1:1 (v/v) with TFE; for % helix, 50% TFE / % helix, benign: relative to the molar ellipticity of peptide V16E in 50% TFE; for % helix, benign: KP buffer pH 7.0, 25 °C. On the procedure: The secondary structures of peptides were determined in benign buffer and in a hydrophobic environment (50% trifluoroethanol, TFE) to mimic the hydrophobic environment of the membrane. […] The principle of side chain interaction at the i to i + 3 and i to i + 4 positions has been used to promote α-helix stability, for example, the incorporation of Lys and Glu residues to stabilize electrostatic attractions. Thus, the helicity of peptide V16E in the presence of 50% TFE that presented the greatest value among all analogs should rely on the contribution of the electrostatic attraction of the side chain of K13 and E16, which stabilizes the helix. The relative helicity is 100% for peptide V16E in 50% TFE, showing the importance of the salt bridges of K13 and E16 to stabilize the helical structure. In general, subtle side-chain alterations by single amino acid substitutions made no significant changes on secondary structures both in aqueous and in hydrophobic environments (Table 2).
Circular dichroism spectra were measured with a 0.02 cm path length quartz cuvette on a Jasco J-810 spectropolarimeter (Jasco, Tokyo, Japan) at 25 °C. Data were collected from 250 to 190 nm at a sensitivity of 100 millidegrees, response time of 1 s, bandwidth of 1.0 nm and a scan speed of 100 nm/min. Peptides were measured at a concentration of 75 μM in a benign buffer (50 mM KH2PO4/K2HPO4, 100 mM KCl, pH 7) or the benign buffer mixed with 50% 2,2,2-trifluoroethanol (TFE). The mean residue molar ellipticities were calculated using the equation [θ] = θ/10lcMn, where θ is the ellipticity in millidegrees, l is the optical path length of the cuvette in centimeters, cM is the peptide concentration in mole/liter and n is the number of residues in the peptide.

The nature of data set [2]: Tryptophan fluorescence in HEPES buffer. Type of data set: physicochemical. As to conditions: peptide 2 μM, excitation 280 nm. From the text: Upon peptide diffusion into the cytoplasmic membrane, evidence of selective interaction between peptides with bacterial versus mammalian cytoplasmic membrane was illustrated by the binding events of the peptides to anionic or zwitterionic lipid vesicles. The repositioning of the tryptophan indole group in an environment of reduced polarity upon membrane binding results in a blue shift in the fluorescence […] maximum coupled with an enhancement of emission intensity. Lipid/peptide (L/P) ratios were maintained high enough at low peptide concentration (2 μM) in order to mimic the initial steps of peptide-membrane binding. The spectra were recorded as shown in Supplementary Figure S1. […] The significant blue shifts of Δλmax (17 to 23 nm) for all peptides upon exposure to PC/PG vesicles indicated a membrane partition state of Trp in negatively charged vesicles containing 30% anionic lipids (PG).
Fluorescence emission spectra of peptide Trp residues were monitored by a Shimadzu RF-5301 spectrofluorometer. The excitation of wavelength was set as 280 nm and the emission spectra of each peptide, with or without lipid vesicles, were recorded between 300 and 450 nm. Thus three curves were recorded for each peptide, in HEPES buffer or with either PC/PG vesicles or PC/cholesterol vesicles. The blue shift of Trp residues in vesicles were referred to in buffer condition. The final concentrations of peptide and lipid were 2 μM and 100 μM (1/50), respectively.

Data set [3] can be described thus: Analytical RP-HPLC retention time as a measure of peptide hydrophobicity. Type of data set: physicochemical. As to conditions: RP-HPLC at 25 °C, Zorbax 300 SB-C8 column, linear AB gradient, A 0.1% aqueous TFA, B 0.1% TFA in acetonitrile, 1 mL/min, detection at 210 nm. The protocol: Among substitutions, the retention times ranged from 32.2 min (peptide V16K) to 40.4 min (peptide V16L), which reflect the pure effects of single amino acid substitutions. Thus, the retention times of peptides reflect the relative hydrophobicity of side chains. Consistent with previous studies, the hydrophobicity of peptide analogs was generally in the following order: Lys < Gly < Ser < Ala < Val < Leu. Glu-substituted peptide was an exception, as it contains a negatively-charged side chain and this should decrease the hydrophobicity of the peptide dramatically.
Peptides were analyzed on a Shimadzu LC-20A HPLC using a Zorbax 300 SB-C8 column (150 ° 4.6 mm i.d., 5 μm particle size, 300 Å pore size) from Agilent Technologies using a linear AB gradient and a flow rate of 1 mL/min, where solvents A and B were as described above. Absorbance signals of peptides were detected at 210 nm.

A further data set has as its system E. coli DH5α. Nature of the data set: MIC by broth dilution. In kind it is cell-based. As to conditions: MH broth, 5 × 10^5 CFU/mL, 24 h at 37 °C. On the procedure:
as §1

Converted amounts (≈) assume the structure as drawn. Like-named read-outs stand apart in the source and are kept apart here.

“Ac-KWKSFLKTFKSAKKTKLHTALKAISS-NH2 [Peptide V16K]”: the MIC against P. aeruginosa ATCC27853 (ATCC27853, 24 h) was found to be 32 µg/mL; with E. coli Clinical Isolate (Clinical Isolate, 24 h), 8 µg/mL; in the data set on E. coli ATCC25922 (ATCC25922, 24 h), 32 µg/mL; against P. aeruginosa H188 (H188, 24 h), 16 µg/mL; against E. coli DH5α, 16 µg/mL. Besides, the “[θ]222, mean residue molar ellipticity, benign” value in data set [1] was −1,990 degree·cm^2·dmol^−^1. For the same compound, the “[θ]222, mean residue molar ellipticity, 50% TFE” value in data set [1] is −29,313 degree·cm^2·dmol^−^1. In data set [1], the “% helix, 50% TFE” value is recorded as 97.5%. Also, in data set [1], the “% helix, benign” value is 6.6%. In data set [2], the “Tryptophan fluorescence emission maximum” value was determined as 350 nm. For the same compound, the “tR, retention time during RP-HPLC (relative hydrophobicity)” value in data set [3] was determined as 32.2 min.

As to `CC[C@H](C)[C@H](NC(=O)[C@H](C)NC(=O)[C@H](CCCCN)NC(=O)[C@H](CC(C)C)NC(=O)[C@H](C)NC(=O)[C@@H](NC(=O)[C@H](Cc1cnc[nH]1)NC(=O)[C@H](CC(C)C)NC(=O)[C@@H](NC(=O)[C@@H](NC(=O)[C@H](CCCCN)NC(=O)[C@H](CCCCN)NC(=O)[C@H](C)NC(=O)[C@H](CO)NC(=O)[C@H](CCCCN)NC(=O)[C@H](Cc1ccccc1)NC(=O)[C@@H](NC(=O)[C@H](CCCCN)NC(=O)[C@H](CC(C)C)NC(=O)[C@H](Cc1ccccc1)NC(=O)[C@H](CO)NC(=O)[C@H](CCCCN)NC(=O)[C@H](Cc1c[nH]c2ccccc12)NC(=O)[C@H](CCCCN)NC(C)=O)[C@@H](C)O)[C@@H](C)O)C(C)C)[C@@H](C)O)C(=O)N[C@@H](CO)C(=O)N[C@@H](CO)C(N)=O` [P], the MIC in the data set with P. aeruginosa ATCC27853 (P. aeruginosa ATCC27853, MH broth, 5 × 10^5 CFU/mL, 24 h at 37 °C) stood at 4 µg/mL (≈ 1.34 µM); with E. coli Clinical Isolate (E. coli Clinical Isolate, MH broth, 5 × 10^5 CFU/mL, 24 h at 37 °C), 1 µg/mL (≈ 0.334 µM); in the data set on E. coli ATCC25922 (E. coli ATCC25922, MH broth, 5 × 10^5 CFU/mL, 24 h at 37 °C), 1 µg/mL (≈ 0.334 µM); in the data set on P. aeruginosa H188 (P. aeruginosa H188, MH broth, 5 × 10^5 CFU/mL, 24 h at 37 °C), 4 µg/mL (≈ 1.34 µM); against E. coli DH5α it was 2 µg/mL (≈ 0.669 µM). Besides, the “[θ]222, mean residue molar ellipticity, benign” value in data set [1] is −2,592 degree·cm^2·dmol^−^1. Also, in data set [1], the “[θ]222, mean residue molar ellipticity, 50% TFE” value is recorded as −29,726 degree·cm^2·dmol^−^1. Besides, the “% helix, 50% TFE” value in data set [1] was 98.9%. In addition, the “% helix, benign” value in data set [1] came out at 8.6%. The “Tryptophan fluorescence emission maximum” value in data set [2] was found to be 350 nm. Moreover, the “tR, retention time during RP-HPLC (relative hydrophobicity)” value in data set [3] turned out to be 38.2 min.
